Patent publication US6559158B1, “Use of methylnaltrexone and related compounds to treat chronic opioid use side affects” (UR Labs, Inc., priority 1997, dated 2003)
Several values for one entry are separate records, joined by “and”; a condition that tells them apart may be missing. Equal entries are not always repeated. Where two headings read alike, the source gives them in different places.

Key:
[1] = Example 3: plasma level after oral methylnaltrexone
Experimental: (§1) Since oral medication is a safer and more convenient way to deliver drugs than is intravenous administration, the efficacy of oral MNTX in relieving constipation in methadone maintained patients was evaluated. Twelve constipated adults (≦2 stool/week) were enrolled. Their daily methadone dose was 73.3±16.2 mg (41-100 mg), mean±SD (range). On day 1 at 9AM, subjects ingested 10 g lactulose (Solvay Pharmaceuticals) to assess oral-cecal transit time as described above, and a placebo capsule. On day 2 at 9AM, subjects again received lactulose, and a capsule containing methylnaltrexone (Mallinckrodt). Ascending oral methylnaltrexone doses (0.3, 1.0, and 3,0 mg/kg) were given to 3 groups of 4 subjects per group. Drug administrations were single-blinded to the subject. Laxation response and potential opioid withdrawal were recorded and blood samples were collected.

[2] = humans; cited from earlier work
[3] = system: constipated methadone maintained patients; test: Example 3: oral methylnaltrexone, laxation response; assay type: in vivo, human; details: for subjects who had a bowel movement: 4 subjects; for time to bowel movement after oral compound: mean±SD
Experimental: as §1

[4] = system: chronic methadone subjects; test: Example 3: oral methylnaltrexone, oral-cecal transit time; assay type: in vivo, human
Experimental: The oral-cecal transit time was assessed by the pulmonary hydrogen (H2) measurement technique, which measures pulmonary H2 that is produced when unabsorbed lactulose is fermented by colonic bacteria and excreted in the breath. This H2 production is reflected by a concomitant increase in breath H2 excretion. […] Dis. Sci., 32:829-832 (1987)). Hydrogen breath tests were conducted every 15 min until oral-cecal transit time was determined.
Twelve constipated adults (≦2 stool/week) were enrolled. […] Drug administrations were single-blinded to the subject.

normal volunteers [5] = details: 0.45 mg/kg iv, cited from earlier work
[6] = system: chronic methadone subjects with methadone-induced constipation; test: Example 1: intravenous methylnaltrexone, laxation response and stool frequency in methadone maintenance subjects; assay type: in vivo, human; details: for Stool frequency Methylnaltrexone (per day): during iv methylnaltrexone treatment
Experimental: Methylnaltrexone dose of 0.45 mg/kg was chosen to start this trial because this dose was previously given in normal volunteers and prevented opioid-induced delay of the oral-cecal transit time without any side effects (Yuan et al., Clin. Pharmacol Ther., 59:469-475 (1996)). Drug administration was performed single blind to the subjects in this pilot study. Thus, methylnaltrexone dose could be adjusted based on subjects' clinical response during the study.
All four subjects received placebo (normal saline) on Day 1. Thereafter, subjects received intravenous methylnaltrexone until the end of the study.
On Day 2 at 09:00 hours (h), Subjects 1 and 2 were given 0.45 mg/kg intravenous methylnaltrexone over 1 min. Subject 2 experienced severe abdominal cramps after receiving the compound and was withdrawn from the study. […] Beginning on Day 4, the study was resumed for Subject 1 using 0.45 mg/kg of methylnaltrexone, diluted with 50 ml normal saline and administered over 30 min. Infusion could be stopped at any time for complaints of abdominal pain.
For Subjects 3 and 4, the study was shortened from 8 to 5 days, methylnaltrexone dosage was decreased, and a new, three-step dosing procedure was established. Methylnaltrexone 0.05 mg/kg, mixed in 30 ml normal saline (first syringe), was infused intravenously over 10 min. The subject was then observed 10 min for drug response. If there was no response, then methylnaltrexone 0.1 mg/kg (second syringe), mixed in 30 ml normal saline, was infused over 15 min. Subject was observed 15 min for drug response. If there was no response, then methylnaltrexone 0.3 mg/kg (third syringe), mixed in 30 ml normal saline, was infused over 15 min.
After each test drug administration, seven blood samples (5 ml each) were obtained at time 0, 5, 30 min, and 1, 2, 4, 8 h, and three urine samples were collected at time 0, 2, and 4 h. Plasma and urine methylnaltrexone levels were determined by an HPLC technique with a detection limit of 2 ng/ml (Kim et al., 1989; Yuan et al., Clin. Pharmacol Ther., 59:469-475 (1996); both herein incorporated by reference). […] Subjects' bowel movements were witnessed and recorded by a research nurse.

[7] = Example 4: pharmacokinetics of 0.45 mg/kg intravenous methylnaltrexone; details: per subject (1-12) and Mean ± SD
Experimental: Sessions were separated by at least 1 week. Each session lasted approximately 7 hours, and the subjects received one of three injections: (1) placebo plus placebo, (2) placebo plus 0.05 mg/kg morphine, or (3) 0.45 mg/kg methylnaltrexone plus 0.05 mg/kg morphine. Injection I was given at the first session, and the subjects were blinded to the medication. Injections 2 and 3 were given in a random order, and the subjects and observers were blinded to the medication. Injection assignments were prepared by random selection on a computer and were sealed in envelopes.

normal volunteers [8] = details: eight normal volunteers, cited from earlier work
[9] = system: chronic methadone subjects; test: Example 3: oral methylnaltrexone, opioid withdrawal and adverse effects; details: oral 0.3-3.0 mg/kg
Experimental: as §1

C[N@+]1(CC2CC2)CC[C@]23c4c5ccc(O)c4O[C@H]2C(=O)CC[C@@]3(O)[C@H]1C5 [methylnaltrexone, N-methylnaltrexone bromide]
Peak plasma level ([1]; 4 subjects with detectable level (one 1.0 mg/kg, three 3.0 mg/kg oral), mean±SD, range 10-26): 17.8 ± 6.6 ng/mL | subjects with undetectable methylnaltrexone in plasma ([1]; of 12 subjects, oral 0.3-3.0 mg/kg): Eight | blood-brain barrier passage [2]: does not cross the blood-brain barrier | de-methylation [2]: do not appreciably de-methylate | subjects who had a bowel movement ([3]; oral 0.3 mg/kg): 3 out of 4 | time to bowel movement after oral compound ([3]; oral 0.3 mg/kg, range 8-24 hr): 18.0 ± 8.7 h | subjects who had a bowel movement ([3]; oral 1.0 mg/kg): All subjects | time to bowel movement after oral compound ([3]; oral 1.0 mg/kg, range 3-24 hr): 12.3 ± 8.7 h | subjects who had a bowel movement ([3]; oral 3.0 mg/kg): All subjects | time to bowel movement after oral compound ([3]; oral 3.0 mg/kg, range 1.2-10 hr): 5.2 ± 4.5 h | reduction in oral-cecal transit time ([4]; methadone subjects, dose of 3.0 mg/kg (FIG. 5)): greater than 35% | dose-related reduction of oral-cecal transit times ([4]; oral 0.3, 1.0, 3.0 mg/kg, p<0.05, Spearman rank correlation and linear regression): significant dose-response effect | effect on opioid-induced delay in oral-cecal transit time (normal volunteers [5]; healthy volunteers, acute single doses): effectively prevented opioid-induced delay in oral-cecal transit time | effect on analgesia (normal volunteers [5]; healthy volunteers): without affecting analgesia | Laxation response (normal volunteers [5]; normal opioid naive subjects): without any laxation response | Laxation response ([6]; Subjects 1 and 2, 0.45 mg/kg iv): immediate positive Taxation | Laxation response ([6]; Subjects 3 and 4, 0.05-0.15 mg/kg iv twice daily for 4 consecutive days): immediate laxation response | Stool frequency Methylnaltrexone (per day) ([6]; #1 0.45 mg/kg bid, #2 0.45 mg/kg, #3 and #4 0.05-0.15 mg/kg bid, iv methylnaltrexone 0.45 mg/kg): 1 per day | Stool frequency Methylnaltrexone (per day) ([6]; #1 0.45 mg/kg bid, #2 0.45 mg/kg, #3 and #4 0.05-0.15 mg/kg bid, iv methylnaltrexone 0.05-0.15, bid mg/kg): 2 per day | Stool frequency Methylnaltrexone (per day) ([6]; #1 0.45 mg/kg bid, #2 0.45 mg/kg, #3 and #4 0.05-0.15 mg/kg bid, iv methylnaltrexone 0.05-015, bid mg/kg): 1.3 per day | Stool frequency Methylnaltrexone (per day) ([6]; #1 0.45 mg/kg bid, #2 0.45 mg/kg, #3 and #4 0.05-0.15 mg/kg bid, iv methylnaltrexone 0.45, bid mg/kg): 1.5 per day | stool frequency during the treatment period ([6]; four subjects, iv methylnaltrexone, 1-2 times per week before the study): approximately 1.5 stool per day | Laxation response ([6]; iv methylnaltrexone, #1 0.45 mg/kg bid, #2 0.45 mg/kg, #3 and #4 0.05-0.15 mg/kg bid): Immediate | AUC ([7]; human, in vivo, iv, 0.45 mg/kg, AUC, area under the plasma concentration-time curve from 0 to 6 hours): 549 ng·h/mL | AUC, area under the plasma concentration-time curve from 0 to 6 hours [7]: 694 ng·h/mL and 595 ng·h/mL and 637 ng·h/mL and 588 ng·h/mL and 1013 ng·h/mL and 634 ng·h/mL and 587 ng·h/mL and 747 ng·h/mL and 677 ng·h/mL and 742 ng·h/mL and 658 ng·h/mL | CL, total body clearance [7]: 51.7 L/h and 61.6 L/h and 41.6 L/h and 62.2 L/h and 68.1 L/h and 28.4 L/h and 73.2 L/h and 43.0 L/h and 45.2 L/h and 46.5 L/h and 47.8 L/h and 60.1 L/h | Cmax, peak free plasma concentration [7]: 2111 ng/mL and 4309 ng/mL and 1921 ng/mL and 2418 ng/mL and 5471 ng/mL and 4076 ng/mL and 3443 ng/mL and 2993 ng/mL and 3059 ng/mL and 3119 ng/mL and 4033 ng/mL and 2640 ng/mL | Fu, percentage of dose excreted unchanged in urine from 0 to 3 hours [7]: 33.8% and 36.5% and 43.5% and 26.6% and 49.6% and 73.4% and 44.4% and 46.0% and 39.5% and 40.4% and 35.1% and 34.0% | t1/2β, terminal half-life [7]: 2.077 h and 2.71 h and 3.385 h and 3.968 h and 1.42 h and 1.56 h and 1.903 h and 2.53 h and 1.875 h and 1.772 h and 1.6 h and 1.46 h | side effects (normal volunteers [8]; doses of 0.64 to 1.25 mg/kg): transient orthostatic hypotension | side effects (normal volunteers [8]; doses up to 0.32 mg/kg): did not cause side effects | opioid withdrawal ([9]; any subjects): no opioid withdrawal | abdominal cramping ([9]; most subjects): very mild abdominal cramping | adverse effects [9]: no adverse effects were reported
